Laboratory results: US11168364B2, “Method and system for sequencing nucleic acids” (priority 2016, dated 2021)
Where two headings read alike, the source gives them in different places.

Assays:
[1] = target: Klenow (3′→5′ exo(−)) fragment of E. coli DNA polymerase (Escherichia coli, UniProt P00582, D355A/E357A)
[2] = target: Klenow (Escherichia coli, UniProt P00582); test: Label-free optical detection of Klenow binding with magnesium in the examination step (Example 1); details: Polymerase Buffer with 10 mM MgCl2; 150 nM Klenow; 100 μM dNTP; template base T
[3] = target: T1, HIV reverse transcriptase (Human immunodeficiency virus type 1 group M subtype B, UniProt P03366); test: Biolayer interferometry binding of HIV RT, dNTP and NNRTI to primer-template biosensor (Example 8); parameters: species or system HIV-1; details: 100 μM dNTP, 100 nM HIV RT, association phase
T1 construct: Recombinant purified HIV reverse transcriptase (HIV RT) was from Worthington Biochemical Corp; purchased Worthington Biochemical Corp (Lakewood, N.J.)
Description: Uncompetitive NNRTI compounds (Pitta et al., J. Enzyme Inhib. Med. Chem. 28(10): 113-22 (2013)), which is incorporated by reference herein in its entirety), were from Epigen Biosciences, Inc. (San Diego, Calif.). NNRTI compounds 7 (3-4-chloro-benzo[d]thiazol-2-yl)-2-(2-chloro-6-fluorophenyl)thiazolidin-4-one) and 18 (3-(6-ethoxy-benzo[d]thiazol-2-yl)-2-(2-chloro-6-fluorophenyl)thiazolidin-4-one) were dissolved in dimethylsulfoxide (DMSO) to concentrations of 25.0 mM and 15.0 mM, respectively. Recombinant purified HIV reverse transcriptase (HIV RT) was from Worthington Biochemical Corp (Lakewood, N.J.). Ultra-pure bovine serum albumin (BSA) was from Ambion (Foster City, Calif.). […] Primer-template duplex was diluted (100 μM) into Annealing Buffer. Immediately before use, HIV Reverse Transcriptase was pre-diluted into Enzyme Diluent (50 mM Tris buffer (pH 8.0), 8 mM MgCl2). […] NNRTI compounds were pre-diluted with DMSO immediately before being spiked into Binding Buffer. Reaction Buffer was Binding Buffer without NNRTI, dNTP or HIV RT enzyme. […] Biosensors were transferred to Binding Buffer containing HIV RT and dCTP+NNRTI (association phase) followed by Reaction Buffer (dCTP incorporation and dissociation phase). […] Cycles of binding and incorporation were repeated multiple times. […]

[4] = system: Nucleic Acid:Polymerase Complex; test: Stabilization of nucleic acid:polymerase complex in wash buffer (Example 6); format: binding; details: 3.5 mM Sr2+ in wash buffer (LS buffer)
Description: To minimize the possibility of multiple incorporations in a homopolymer region, a wash step can be performed before incorporation. Metal cations such as calcium and strontium can stabilize the polymerase complex (like magnesium), but cannot support catalysis of the phosphodiester bond which results in incorporation of the nucleotide. In this experiment, varying concentrations of SrCl2 (0 mM-14 mM) were added to the wash buffer (LS buffer).

[5] = divalent cation 2.0 mM (CoCl2 1.0 mM) in Binding Buffer, 100 μM dCTP
[6] = divalent cation 2.0 mM (CoCl2 1.0 mM), 100 μM dCTP

Klenow (3′→5′ exo(−)) fragment of E. coli DNA polymerase, sequence (P00582 324-928 D355A/E357A limits assumed): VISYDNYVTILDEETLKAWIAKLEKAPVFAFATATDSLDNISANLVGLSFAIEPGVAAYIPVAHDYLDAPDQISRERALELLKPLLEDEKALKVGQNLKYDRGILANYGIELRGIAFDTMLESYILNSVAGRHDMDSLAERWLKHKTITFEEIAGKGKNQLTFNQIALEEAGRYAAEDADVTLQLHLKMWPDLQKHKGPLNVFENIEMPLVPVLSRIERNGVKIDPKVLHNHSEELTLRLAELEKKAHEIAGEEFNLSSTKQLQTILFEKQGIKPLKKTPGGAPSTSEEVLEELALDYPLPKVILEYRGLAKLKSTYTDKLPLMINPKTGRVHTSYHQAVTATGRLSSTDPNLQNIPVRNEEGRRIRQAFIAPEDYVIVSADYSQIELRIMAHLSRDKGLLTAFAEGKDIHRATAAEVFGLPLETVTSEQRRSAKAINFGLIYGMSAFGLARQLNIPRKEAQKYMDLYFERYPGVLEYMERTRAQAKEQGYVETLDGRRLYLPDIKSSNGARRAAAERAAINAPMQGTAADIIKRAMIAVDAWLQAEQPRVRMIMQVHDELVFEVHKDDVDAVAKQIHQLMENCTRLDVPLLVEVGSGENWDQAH
Klenow, sequence (P00582 324-928): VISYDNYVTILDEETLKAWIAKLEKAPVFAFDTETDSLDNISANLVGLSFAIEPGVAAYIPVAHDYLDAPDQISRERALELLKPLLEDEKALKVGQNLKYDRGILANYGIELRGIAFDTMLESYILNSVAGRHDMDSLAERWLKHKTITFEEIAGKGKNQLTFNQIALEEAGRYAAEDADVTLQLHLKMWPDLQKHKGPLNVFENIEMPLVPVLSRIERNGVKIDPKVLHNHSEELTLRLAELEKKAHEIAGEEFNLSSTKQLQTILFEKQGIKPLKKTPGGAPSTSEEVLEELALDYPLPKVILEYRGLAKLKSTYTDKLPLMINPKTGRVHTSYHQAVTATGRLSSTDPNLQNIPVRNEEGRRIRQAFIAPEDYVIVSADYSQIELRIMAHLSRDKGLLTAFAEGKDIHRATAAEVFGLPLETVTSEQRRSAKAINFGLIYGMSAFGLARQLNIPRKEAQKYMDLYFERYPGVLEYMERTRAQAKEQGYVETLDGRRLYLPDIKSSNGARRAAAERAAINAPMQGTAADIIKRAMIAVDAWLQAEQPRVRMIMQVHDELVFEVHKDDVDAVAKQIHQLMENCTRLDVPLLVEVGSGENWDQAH

Compound: N.N.O=S(=O)(O)O [ammonium sulfate]
- binding of Klenow exo(−) and dCTP to biosensor coated with ssDNA primer-template [1, 5]: bound strongly

Compound: [Cl-].[Cl-].[Zn+2] [Zn2+, zinc chloride]
- binding of Klenow exo(−) and dCTP to biosensor coated with ssDNA primer-template [1, 5]: transient peak
- nucleotide incorporation by Klenow exo(−) in the absence of Mg2+ [1, 6]: complete nucleotide incorporation

Compound: Nc1ncnc2c1ncn2[C@H]1C[C@H](O)[C@@H](COP(=O)(O)OP(=O)(O)OP(=O)(O)O)O1 [dATP, 2′-deoxyadenosine-5′-triphosphate]
- pre-steady state rate constant [2]: 0.0106

Compound: Nc1ccn([C@H]2C[C@H](O)[C@@H](COP(=O)(O)OP(=O)(O)OP(=O)(O)O)O2)c(=O)n1 [dCTP, 2′-deoxycytidine-5′-triphosphate]
- pre-steady state rate constant [2]: 0.0084

Compound: [Ba+2].[Cl-].[Cl-] [BaCl2, barium chloride]
- binding of Klenow exo(−) and dCTP to biosensor coated with ssDNA primer-template [1, 5]: bound strongly

Compound: [Cl][Co][Cl] [Co2+, cobalt chloride]
- binding of Klenow exo(−) and dCTP to biosensor coated with ssDNA primer-template [1, 5]: transient peak
- nucleotide incorporation by Klenow exo(−) in the absence of Mg2+ [1, 6]: complete nucleotide incorporation

Compound: [Ca+2].[Cl-].[Cl-] [Ca2+, calcium chloride]
- binding of Klenow exo(−) and dCTP to biosensor coated with ssDNA primer-template [1]: transient peak
- nucleotide incorporation by Klenow exo(−) in the absence of Mg2+ [1]: complete nucleotide incorporation

Compound: manganese chloride [Mn2+]
- binding of Klenow exo(−) and dCTP to biosensor coated with ssDNA primer-template [1, 5]: flat peak
- nucleotide incorporation by Klenow exo(−) in the absence of Mg2+ [1, 6]: complete nucleotide incorporation

Compound: O=C1CSC(c2c(F)cccc2Cl)N1c1nc2c(Cl)cccc2s1 (centres unmarked) [NNRTI compound 7]
- binding of HIV reverse transcriptase and correct dNTP to biosensor coated with primer-template ([3]; NNRTI 40 μM): distinct peaks for binding

Compound: [Cl-].[Cl-].[Sr+2] [SrCl2, Strontium chloride]
- stability of polymerase complex in wash buffer [4]: much more stable
- binding of Klenow exo(−) and dCTP to biosensor coated with ssDNA primer-template [1, 5]: bound strongly

Compound: [Cl][Cu][Cl] [Cu2+, copper(II) chloride]
- binding of Klenow exo(−) and dCTP to biosensor coated with ssDNA primer-template [1]: transient peak

Compound: CCOc1ccc2nc(N3C(=O)CSC3c3c(F)cccc3Cl)sc2c1 (centres unmarked) [NNRTI compound 18, 3-(6-ethoxy-benzo[d]thiazol-2-yl)-2-(2-chloro-6-fluorophenyl)thiazolidin-4-one]
- binding of HIV reverse transcriptase and correct dNTP to biosensor coated with primer-template ([3]; NNRTI 80 μM): distinct peaks for binding
